The numbers were not newly measured in US10765633B2, “Formulation comprising liposomes” (Eisai R&D Management Co., Ltd., priority 2018, dated 2020), which cites them from elsewhere.

The data set deals with HDL. The following applies: binding of eritoran to HDL.

On to `CCCCCC/C=C\CCCCCCCCCC(=O)N[C@H]1[C@H](OC[C@H]2O[C@H](OP(=O)(O)O)[C@H](NC(=O)CC(=O)CCCCCCCCCCC)[C@@H](OCCCCCCCCCC)[C@@H]2O)O[C@H](COC)[C@@H](OP(=O)(O)O)[C@@H]1OCC[C@@H](CCCCCCC)OC` [eritoran, Eritoran], for which the “effect of binding to HDL on drug activity” value is “time-dependent loss of drug activity”.
